Each structure is given as a SMILES string.

From patent publication US12213970B2, “Pyridinyl sulfonamide derivatives, pharmaceutical compositions and uses thereof” (Boehringer Ingelheim International GmbH, priority 2018, dated 2025) come the findings set out here.

Assay [1] concerns the target T1, AOC1 (Homo sapiens, UniProt P19801).
T1 construct: purchased R&D Systems 8297-AO-010
T1 sequence (P19801 20-751): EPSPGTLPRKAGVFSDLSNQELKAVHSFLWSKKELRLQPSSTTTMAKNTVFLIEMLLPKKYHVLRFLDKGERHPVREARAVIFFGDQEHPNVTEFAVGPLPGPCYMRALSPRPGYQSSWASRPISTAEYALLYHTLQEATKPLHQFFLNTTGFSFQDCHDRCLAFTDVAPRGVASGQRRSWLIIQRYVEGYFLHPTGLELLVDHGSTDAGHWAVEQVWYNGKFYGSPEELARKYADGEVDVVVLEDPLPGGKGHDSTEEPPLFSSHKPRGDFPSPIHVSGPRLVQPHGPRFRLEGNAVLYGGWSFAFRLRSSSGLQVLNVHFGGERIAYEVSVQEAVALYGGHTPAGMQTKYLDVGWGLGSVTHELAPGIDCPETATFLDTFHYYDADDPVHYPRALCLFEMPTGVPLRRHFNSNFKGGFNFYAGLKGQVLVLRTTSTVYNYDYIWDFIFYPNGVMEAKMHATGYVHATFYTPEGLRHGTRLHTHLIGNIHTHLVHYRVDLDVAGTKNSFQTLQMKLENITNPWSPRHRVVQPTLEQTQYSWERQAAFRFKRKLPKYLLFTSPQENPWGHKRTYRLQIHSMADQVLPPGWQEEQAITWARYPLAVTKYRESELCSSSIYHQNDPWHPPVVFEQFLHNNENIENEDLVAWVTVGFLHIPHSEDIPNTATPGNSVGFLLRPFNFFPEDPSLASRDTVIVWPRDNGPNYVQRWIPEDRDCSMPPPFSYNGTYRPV
Nature of the assay: AOC1 biochemical assay (Amplex Red). The note with it: read-out: AOC1 IC50. How it is done: The Amplex® Red Assay (available from Thermo Fisher Scientific) provides a sensitive method for the detection of H2O2 generated during enzymatic reactions like the amine oxidation catalyzed by AOC1. The assay reagent is a colorless substrate (N-acetyl-3,7-dihydroxyphenoxazine) that reacts in a 1:1 stoichiometry with hydrogen peroxide (H2O2) to produce the fluorescent dye resorufin (7-hydroxyphenoxazin-3-one, excitation/emission maxima=570/585 nm).
An aliquot of 3 μL of the compound dilution is added to a 384 well plate (Optiplate, PS, flat bottom F, black, PERKIN ELMER, #6007270) in a DMSO concentration of 6.6%.
An AOC1 enzyme aliquot (#8297-AO-010, R&D Systems) is thawed on ice, diluted in reaction buffer and added in a volume of 7 μL to the wells to give a final assay concentration of 1 ng/well. After incubation of inhibitor and enzyme for 30 minutes at 37° C., the enzymatic reaction is started with the addition of 10 μL of Amplex® Red reaction mix (final assay concentration: 100 mM sodiumphosphate, 120 μM Amplex® Red reagent (#A22177 Molecular Probes), 1.5 U/mL Horseradish Peroxidase (#P8375 Sigma-Aldrich), 200 μM putrescine (#P7505 Sigma-Alrdich), 0.05% Pluronic F-127 (#P3000MP Sigma-Aldrich), pH 7.4, 37° C.).
After an incubation for 30 minutes at 37° C. the turnover of the substrate is determined directly (or after the addition of an excess of an amine-oxidase inhibitor) with a fluorescence reader (Ex 540 nm/Em 590 nm) like Envision 2104 Multilabel Reader (PERKIN ELMER).

Assay [2] concerns the target T2, AOC2 (Homo sapiens, UniProt O75106).
T2 construct: host or cells: HEK293 cells (transient transfection), cell homogenate
T2 sequence (O75106 1-756): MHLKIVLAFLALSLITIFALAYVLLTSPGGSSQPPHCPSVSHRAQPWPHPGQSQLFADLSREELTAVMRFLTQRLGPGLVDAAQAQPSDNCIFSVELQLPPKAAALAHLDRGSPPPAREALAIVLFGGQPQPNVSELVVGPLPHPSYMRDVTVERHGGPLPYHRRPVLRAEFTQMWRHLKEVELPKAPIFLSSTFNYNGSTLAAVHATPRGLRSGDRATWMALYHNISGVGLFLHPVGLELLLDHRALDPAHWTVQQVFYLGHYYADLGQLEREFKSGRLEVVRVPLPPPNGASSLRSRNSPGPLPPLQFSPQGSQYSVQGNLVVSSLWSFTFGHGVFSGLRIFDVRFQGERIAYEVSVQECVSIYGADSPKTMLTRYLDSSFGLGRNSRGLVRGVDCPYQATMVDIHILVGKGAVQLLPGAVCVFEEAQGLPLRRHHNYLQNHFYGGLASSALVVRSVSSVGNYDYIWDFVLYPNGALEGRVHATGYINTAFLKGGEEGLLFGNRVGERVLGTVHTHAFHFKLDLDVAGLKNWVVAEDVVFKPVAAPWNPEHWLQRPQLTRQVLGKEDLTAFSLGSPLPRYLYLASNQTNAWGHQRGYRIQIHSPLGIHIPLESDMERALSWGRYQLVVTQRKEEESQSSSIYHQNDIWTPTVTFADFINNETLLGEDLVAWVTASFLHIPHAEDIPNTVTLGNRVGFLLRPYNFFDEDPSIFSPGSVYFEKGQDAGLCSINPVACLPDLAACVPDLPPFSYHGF
The assay can be described thus: AOC2 biochemical assay (Amplex Red). The note with it: read-out: AOC2 IC50. On the procedure: The Amplex® Red Assay (commercially available from Thermo Fisher Scientific) provides a sensitive method for the detection of H2O2 generated during enzymatic reactions like the amine oxidation catalyzed by AOC2. […] An aliquot of 5 μL of the compound dilution is added to a 96 well plate (flat bottom F, black, GREINER bio-one, #655900) in a DMSO concentration of 2%. […] Cells are cultured for 3 days in EMEM culture medium containing 10% FCS (#04-00-1A, Biological Industries). After washing twice with ice cold PBS, cells are lysed by mechanic homogenation and cleared supernatants are shock frozen in liquid nitrogen and stored at -80° C. For the determination of AOC2 enzymatic activity cell lysates are thawed on ice and 1:1 diluted with reaction buffer. An Aliquot of 45 μL is added to the compound dilution and incubated for 30 min at 37° C. The enzymatic reaction is started with the addition of 50 μL of Amplex® Red reaction mix (final assay concentration: 100 mM sodiumphosphate, 120 μM Amplex® Red reagent (#A22177 Molecular Probes), 1.5 U/mL Horseradish Peroxidase (#P8375 Sigma-Aldrich), 2 mM phenylethylamine (#[…] Sigma-Aldrich), 0.05% Pluronic F-127 (#P3000MP Sigma-Aldrich), pH 7.4, 37° C.). The turnover per time of the substrate is determined directly with a fluorescence reader (Ex 540 nm/Em 590 nm) like Envision 2104 Multilabel Reader (PERKIN ELMER) for 60 min. (cf. Anal Biochem (1997) 253:169-174; Anal Biochem (1997) 253:162-168)

One may read the IC50 as the concentration needed to halve the response being measured. In the case of `NC/C(=C/F)COc1ccc(S(=O)(=O)N2CCC(C(=O)O)CC2)cn1` [Example 46], the IC50 is above 50000 nM in assay [1] and 45 nM in assay [2].

On to `NC/C(=C/F)COc1ccc(S(=O)(=O)N2CC[C@H](C(N)=O)C2)cn1` [Example 39], for which the 50% inhibitory concentration (IC50) in assay [1] came to 909 nM; in assay [2], 56 nM.

As for `NC/C(=C/F)COc1ccc(S(=O)(=O)N2CCC[C@@H]2C(N)=O)cn1` [Example 18], the IC50 in assay [1] turned out to be 1220 nM; in assay [2], 176 nM.

On to `CN(C)C(=O)C1CCN(S(=O)(=O)c2ccc(OC/C(=C\F)CN)nc2)CC1` [Example 17], for which the results for the IC50 in assay [1] and in assay [2] were 6250 nM and 189 nM, respectively.

As for `CNC(=O)[C@@H]1CCCN1S(=O)(=O)c1ccc(OC/C(=C\F)CN)nc1` [Example 8], the IC50 in assay [1] is 497 nM; in assay [2], 257 nM.
